Measured values reported in patent US9096595B2, “7-(heteroaryl-amino)-6,7,8,9-tetrahydropyrido[1,2-a]indol acetic acid derivatives and their use as prostaglandin D2 receptor modulators” (Actelion Pharmaceuticals Ltd, priority 2011, dated 2015).

Columns and labels:
[1] = molecular target: T1, hCRTH2 receptor (Homo sapiens (Human), UniProt Q9Y5Y4); assay: hCRTH2 receptor membranes radioligand (3H-PGD2) displacement assay; settings: 3H-PGD2 2.5 nM, HEK293-hCRTH2 membrane fragments, Binding-Buffer with 0.1% BSA
Experimental: (§1) First, recombinant HEK293-hCRTH2 cells were detached from culture plates into 5 ml buffer A/plate (Buffer A: 5 mM Tris, 1 mM MgCl2-6H2O pH=7.4) using a rubber policeman. Cells were then transferred into centrifugation tubes and centrifuged for 5 min at 400 g. The cell pellet was resuspended in the same buffer and tubes were frozen at −80° C. Cells were thawed and membrane fragments were generated by homogenization using a polytron homogenizer (30 seconds). The membrane fragments were then centrifuged at 3000 g for 20 minutes and resuspended in buffer C (Buffer C: 75 mM Tris, 25 mM MgCl2, 250 mM Saccharose pH 7.4). Aliquots of membrane fragments were stored at −20° C.
(§2) Binding assay was performed in a final assay volume of 250 μl. First, 25 μl of test compound, previously diluted in Binding-Buffer (Binding-Buffer: 50 mM Tris-Base, 100 mM NaCl, 1 mM EDTA, 0.1% BSA (protease free), 0.01% NaN3, 10 mM MnCl2 pH 7.0) was placed into each well. After addition of 75 μl Binding-Buffer, 50 μl of the radioligand ^3H-PGD2 (at 2.5 nM (220.000 dpm/well) from ANAWA ART0662) was added to each well. Binding assay was started by addition of 100 μl CRTH2 membrane fragments, reaching a final concentration of 20 μg/well. For non-specific binding, PGD2 was added to the reaction mixture to […] final concentration. This assay mix was incubated for 90 minutes at room temperature and then filtered through a GF/C filter 96-well plate which was pre-soaked for 3 hours in 0.5% polyethyleneimine (PEI). The filter-wells were washed three times with ice cold Binding-Buffer. Then, 40 μl of Microscint-40 (Packard) was added to each well and the retained radioactivity quantified in a Topcount (Packard).

[2] = molecular target: T1, hCRTH2 receptor; assay: Radioligand displacement assay in presence of human serum albumin (HSA); settings: 3H-PGD2 2.5 nM, HEK293-hCRTH2 membrane fragments, Binding-Buffer-HSA with 0.5% human serum albumin instead of 0.1% BSA
Experimental: as §1, §2
Radioligand displacement assay in presence of human serum albumin (HSA) was performed as described above, with following modifications. Binding-Buffer-HSA: Binding-buffer+0.5% Sigma Albumin from Human serum A1887 (instead of 0.1% BSA). A volume of 25 μl test compound, previously diluted in Binding-Buffer-HSA was placed into each well. After addition of 75 μl Binding-Buffer-HSA, 50 μl of ^3H-PGD2 (at 2.5 nM (220.000 dpm/well) from ANAWA ART0662) was added to each well. Remaining protocol was identical as described above.

T1 sequence (Q9Y5Y4 whole entry, the tested form may be a part): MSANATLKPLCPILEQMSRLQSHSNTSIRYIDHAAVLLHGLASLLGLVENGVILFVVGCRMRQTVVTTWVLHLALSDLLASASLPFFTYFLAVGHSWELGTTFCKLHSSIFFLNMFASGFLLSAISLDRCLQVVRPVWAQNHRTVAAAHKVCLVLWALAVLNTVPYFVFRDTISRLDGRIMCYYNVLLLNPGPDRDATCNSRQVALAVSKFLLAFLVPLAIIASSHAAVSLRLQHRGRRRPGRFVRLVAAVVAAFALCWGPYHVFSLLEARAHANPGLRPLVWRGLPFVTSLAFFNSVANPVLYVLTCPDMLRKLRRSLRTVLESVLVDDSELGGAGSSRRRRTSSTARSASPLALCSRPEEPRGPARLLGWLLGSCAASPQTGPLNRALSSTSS

Compound | IC50 [1] | IC50 [2]
CN(c1ncc(F)cn1)C1CCc2c(CC(=O)O)c3cc(Cl)ccc3n2C1 (stereo not shown) [Example 15, 2-(2-chloro-7-((5-fluoropyrimidin-2-yl)(methyl)amino)-6,7,8,9-tetrahydropyrido[1,2-a]indol-10-yl)acetic acid] | 136 nM | 
Cc1ccc2c(c1)c(CC(=O)O)c1n2CC(N(C)c2ncc(F)cn2)CC1 (stereo not shown) [Example 13, 2-(7-((5-fluoropyrimidin-2-yl)(methyl)amino)-2-methyl-6,7,8,9-tetrahydropyrido[1,2-a]indol-10-yl)acetic acid] | 417 nM | 
CN(c1ncc(Cl)cn1)C1CCc2c(CC(=O)O)c3cc(OC(F)(F)F)ccc3n2C1 (stereo not shown) [Example 23, 2-(7-((5-chloropyrimidin-2-yl)(methyl)amino)-2-(trifluoromethoxy)-6,7,8,9-tetrahydropyrido[1,2-a]indol-10-yl)acetic acid] | 354 nM | 
COc1ccc2c(c1)c(CC(=O)O)c1n2CC(N(C)c2ncc(F)cn2)CC1 (stereo not shown) [Example 11, 2-(7-((5-fluoropyrimidin-2-yl)(methyl)amino)-2-methoxy-6,7,8,9-tetrahydropyrido[1,2-a]indol-10-yl)acetic acid] | 420 nM | 
CN(c1ncc(F)cn1)C1CCc2c(CC(=O)O)c3cc(OC(F)(F)F)ccc3n2C1 (stereo not shown) [Example 25, 2-(7-((5-fluoropyrimidin-2-yl)(methyl)amino)-2-(trifluoromethoxy)-6,7,8,9-tetrahydropyrido[1,2-a]indol-10-yl)acetic acid] | 141 nM | 
COc1ccc2c(c1)c(CC(=O)O)c1n2CC(N(C)c2nc3cc(F)ccc3o2)CC1 (stereo not shown) [Example 12, 2-(7-((5-fluorobenzo[d]oxazol-2-yl)(methyl)amino)-2-methoxy-6,7,8,9-tetrahydropyrido[1,2-a]indol-10-yl)acetic acid] | 231 nM | 
CN(c1nc2cc(F)ccc2o1)C1CCc2c(CC(=O)O)c3cc(OC(F)(F)F)ccc3n2C1 (stereo not shown) [Example 29, 2-(7-((5-fluorobenzo[d]oxazol-2-yl)(methyl)amino)-2-(trifluoromethoxy)-6,7,8,9-tetrahydropyrido[1,2-a]indol-10-yl)acetic acid] | 964 nM | 
CN(c1nc2ccc(F)cc2s1)C1CCc2c(CC(=O)O)c3cc(OC(F)(F)F)ccc3n2C1 (stereo not shown) [Example 27, 2-(7-((6-fluorobenzo[d]thiazol-2-yl)(methyl)amino)-2-(trifluoromethoxy)-6,7,8,9-tetrahydropyrido[1,2-a]indol-10-yl)acetic acid] | 812 nM | 

Now those with a lower IC50 [1], led by results:

IC50 [1] | IC50 [2] | Compound
7 nM | 31 nM | CN(c1ncc(Cl)cn1)C1CCc2c(CC(=O)O)c3ccc(Cl)cc3n2C1 (stereo not shown) [Example 21, 2-(3-chloro-7-((5-chloropyrimidin-2-yl)(methyl)amino)-6,7,8,9-tetrahydropyrido[1,2-a]indol-10-yl)acetic acid]
8 nM | 152 nM | CN(c1ncc(C(F)(F)F)cn1)C1CCc2c(CC(=O)O)c3ccccc3n2C1 (stereo not shown) [Example 3, 2-(7-(methyl(5-(trifluoromethyl)pyrimidin-2-yl)amino)-6,7,8,9-tetrahydropyrido[1,2-a]indol-10-yl)acetic acid]
1 nM | 10 nM | CN(c1ncc(F)cn1)C1CCc2c(CC(=O)O)c3ccc(F)cc3n2C1 (stereo not shown) [Example 9, 2-(3-fluoro-7-((5-fluoropyrimidin-2-yl)(methyl)amino)-6,7,8,9-tetrahydropyrido[1,2-a]indol-10-yl)acetic acid]
51 nM |  | CN(c1nc2cc(F)ccc2s1)C1CCc2c(CC(=O)O)c3ccc(F)cc3n2C1 (stereo not shown) [Example 19, 2-(3-fluoro-7-((5-fluorobenzo[d]thiazol-2-yl)(methyl)amino)-6,7,8,9-tetrahydropyrido[1,2-a]indol-10-yl)acetic acid]
71 nM |  | Cc1nc(N(C)C2CCc3c(CC(=O)O)c4ccc(Cl)cc4n3C2)c2ccccc2n1 (stereo not shown) [Example 42, 2-(3-chloro-7-(methyl(2-methylquinazolin-4-yl)amino)-6,7,8,9-tetrahydropyrido[1,2-a]indol-10-yl)acetic acid]
